# Experimental data from patent US9675614B2, “PRMT5 inhibitors and uses thereof” (Epizyme, Inc., priority 2012, dated 2017).
# Molecular target: PRMT5/MEP50 (Homo sapiens (Human), UniProt O14744)
# Test: PRMT5 Biochemical Assay (PRMT5/MEP50 enzyme assay on peptide substrate, 3H-SAM Flashplate)
# Settings: PRMT5/MEP50 biochemical assay; read-out: Biochemical IC50
# Text: S-adenosylmethionine (SAM), S-adenosylhomocysteine (SAH), bicine, KCl, Tween20, dimethylsulfoxide (DMSO), bovine skin gelatin (BSG), and Tris(2-carboxyethyl)phosphine hydrochloride solution (TCEP) were purchased from Sigma-Aldrich at the highest level of purity possible. ^3H-SAM was purchase from American Radiolabeled Chemicals with a specific activity of 80 Ci/mmol. 384-well streptavidin Flashplates were purchased from PerkinElmer.
# Peptide representative of human histone H4 residues 1-15 was synthesized with a C-terminal linker-affinity tag motif and a C-terminal amide cap by 21st Century Biochemicals. […] The sequence was Ac-[…][K-Biot]amide (SEQ ID NO.:3).
# Full-length human MEP50 (NM_024102) clone was amplified from a human testis cDNA library incorporating a 5′ sequence encoding a 6-histidine tag (MHHHHHH) (SEQ ID NO.:5) fused directly to Arg 2 of MEP50. The amplified genes were subcloned into pENTR/D/TEV (Life Technologies) and subsequently transferred by Gateway™ attL×attR recombination to pDEST8 baculvirus expression vector (Life Technologies).
# Recombinant baculovirus and Baculovirus-Infected Insect Cells (BIIC) were generated according to Bac-to-Bac kit instructions (Life Technologies) and Wasilko, 2006, respectively. Protein over-expression was accomplished by infecting exponentially growing Spodoptera frugiperda (SF9) cell culture at 1.2×10^6 cell/ml with a 5000 fold dilution of BIIC stock. Infections were carried out at 27° C. for 72 hours, harvested by centrifugation, and stored at −80° C. for purification.
# Flag-PRMT5/6His-MeP50 was eluted with 300 mM Imidazole in the same buffer. […] Reference: Wasilko, D. J. and S. E. Lee: “TIPS: titerless infected-cells preservation and scale-up” Bioprocess J., 5 (2006), pp. 29-32.
# General Procedure for PRMT5/MEP50 Enzyme Assays on Peptide Substrates.
# The assays were all performed in a buffer consisting of 20 mM Bicine (pH=7.6), 1 mM TCEP, 0.005% BSG, and 0.002% Tween20, prepared on the day of use. Compounds in 100% DMSO (1 ul) were spotted into a polypropylene 384-well V-bottom plates (Greiner) using a Platemate Plus outfitted with a 384-channel head (Thermo Scientific). DMSO (1 ul) was added to Columns 11, 12, 23, 24, rows A-H for the maximum signal control and 1 ul of SAH, a known product and inhibitor of PRMT5/MEP50, was added to columns 11, 12, 23, 24, rows I-P for the minimum signal control. A cocktail (40 ul) containing the PRMT5/MEP50 enzyme and the peptide was added by Multidrop Combi (Thermo-Fisher). The compounds were allowed to incubate with PRMT5/MEP50 for 30 min at 25 degrees Celsius, then a cocktail (10 ul) containing ^3H-SAM was added to initiate the reaction (final volume=51 ul). The final concentrations of the components were as follows: PRMT5/MEP50 was 4 nM, ^3H-SAM was 75 nM, peptide was 40 nM, SAH in the minimum signal control wells was 100 uM, and the DMSO concentration was 1%. The assays were stopped by the addition of non-radioactive SAM (10 ul) to a final concentration of 600 uM, which dilutes the ^3H-SAM to a level where its incorporation into the peptide substrate is no longer detectable. 50 ul of the reaction in the 384-well polypropylene plate was then transferred to a 384-well Flashplate and the biotinylated peptides were allowed to bind to the streptavidin surface for at least 1 hour before being washed three times with 0.1% Tween20 in a Biotek ELx405 plate washer. The plates were then read in a PerkinElmer TopCount plate reader to measure the quantity of ^3H-labeled peptide bound to the Flashplate surface, measured as disintegrations per minute (dpm) or alternatively, referred to as counts per minute (cpm).
# [formula] Where dpm=disintegrations per minute, cmpd=signal in assay well, and min and max are the respective minimum and maximum signal controls.
# [formula] Where top and bottom are the normally allowed to float, but may be fixed at 100 or 0 respectively in a 3-parameter fit.
# Sequence of PRMT5/MEP50 (O14744 other isoform, or with tags, fused parts or gaps): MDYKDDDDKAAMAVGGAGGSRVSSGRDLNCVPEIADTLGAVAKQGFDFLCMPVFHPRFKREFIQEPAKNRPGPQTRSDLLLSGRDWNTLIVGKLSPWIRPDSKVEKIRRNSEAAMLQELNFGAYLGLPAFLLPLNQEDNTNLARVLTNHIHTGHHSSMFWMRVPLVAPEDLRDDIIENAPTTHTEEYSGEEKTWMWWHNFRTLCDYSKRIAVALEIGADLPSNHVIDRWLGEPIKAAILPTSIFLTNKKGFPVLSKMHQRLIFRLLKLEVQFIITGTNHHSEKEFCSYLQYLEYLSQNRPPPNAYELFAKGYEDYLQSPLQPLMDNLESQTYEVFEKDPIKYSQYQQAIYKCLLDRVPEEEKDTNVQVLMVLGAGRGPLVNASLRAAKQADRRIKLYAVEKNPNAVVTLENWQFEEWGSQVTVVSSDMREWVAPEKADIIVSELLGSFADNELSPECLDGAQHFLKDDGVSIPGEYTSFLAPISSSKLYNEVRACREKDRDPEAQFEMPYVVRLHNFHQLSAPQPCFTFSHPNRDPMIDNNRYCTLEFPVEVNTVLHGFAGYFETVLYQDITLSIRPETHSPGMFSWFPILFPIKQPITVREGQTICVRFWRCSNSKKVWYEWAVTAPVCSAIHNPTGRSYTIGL
# Sequence of PRMT5/MEP50 (Q9BQA1 other isoform, or with tags, fused parts or gaps partner): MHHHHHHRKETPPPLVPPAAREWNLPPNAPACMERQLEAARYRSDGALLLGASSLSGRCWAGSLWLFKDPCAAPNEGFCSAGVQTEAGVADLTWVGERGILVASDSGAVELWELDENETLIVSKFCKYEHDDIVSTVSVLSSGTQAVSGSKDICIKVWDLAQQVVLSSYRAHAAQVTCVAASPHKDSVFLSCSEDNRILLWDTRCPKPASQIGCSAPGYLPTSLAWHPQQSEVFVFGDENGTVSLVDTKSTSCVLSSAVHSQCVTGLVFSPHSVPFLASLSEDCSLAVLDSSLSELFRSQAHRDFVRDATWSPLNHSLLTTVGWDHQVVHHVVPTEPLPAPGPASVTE
row,IC50 [µM],SMILES
1,< 0.1,CN1CCN(Cc2cccc(C(=O)NCC(O)CN3CCc4ccccc4C3)c2)C(CO)C1 (stereo not drawn) [Compound 115]
2,0.101 to 1,COCCCNc1cccc(C(=O)NCC(O)CN2CCc3ccccc3C2)c1 (stereo not drawn) [Compound 70]
3,0.101 to 1,Cc1cnc(OC2CCOCC2)cc1C(=O)NC[C@H](O)CN1CCc2ccccc2C1 [Compound 309]
4,< 0.1,CC(C)N1CCC(Oc2ccc(C(=O)NCC(O)CN3CCc4ccccc4C3)cc2)CC1 (stereo not drawn) [Compound 106]
5,< 0.1,CNC(=O)CCCN1CCN(Cc2cccc(C(=O)NCC(O)CN3CCc4ccccc4C3)c2)CC1 (stereo not drawn) [Compound 175]
6,< 0.1,NCCNc1cc(C(=O)NC[C@H](O)CN2CCc3ccccc3C2)ccn1 [Compound 320]
7,0.101 to 1,Cc1cc2ncc(C(=O)NC[C@H](O)CN3CCc4ccccc4C3)c(C)n2n1 [Compound 275]
8,< 0.1,CN(c1ccc(C(=O)NCC(O)CN2CCc3ccccc3C2)cc1)C1CCOC1 (stereo not drawn) [Compound 144]
9,< 0.1,O=C(NC[C@H](O)CN1CCc2ccccc2C1)c1cccc2[nH]cnc12 [Compound 241]
10,1 to 10,O=C(NC[C@H](O)CN1CCc2ccccc2C1)c1ccc2[nH]ccc2c1 [Compound 270]
11,< 0.1,"CN1CCCC1c1cccc(C(=O)NCC(O)CN2CCc3ccccc3C2)c1 (stereo not drawn) [Compound 34, N-(3-(3,4-dihydroisoquinolin-2(1H)-yl)-2-hydroxypropyl)-3-(1-methylpyrrolidin-2-yl) benzamide]"
12,< 0.1,O=C(NCC(O)CN1CCc2ccccc2C1)c1ccc(N2CCS(=O)(=O)CC2)cc1 (stereo not drawn) [Compound 179]
13,< 0.1,O=C(NCC(O)CN1CCc2ccccc2C1)c1cc(NC2CCOCC2)n[nH]1 (stereo not drawn) [Compound 169]
14,< 0.1,CS(=O)(=O)N1CCC(Nc2cccc(C(=O)NCC(O)CN3CCc4ccccc4C3)c2)C1 (stereo not drawn) [Compound 122]
15,< 0.1,O=C(NCC(O)CN1CCc2ccccc2C1)c1cccc(NC2CCN(CC(F)(F)F)CC2)c1 (stereo not drawn) [Compound 126]
16,< 0.1,CC(=O)N1CCC(Nc2cccc(C(=O)NC[C@H](O)CN3CCc4ccccc4C3)c2)CC1 [Compound 215]
17,< 0.1,O=C(NC[C@H](O)CN1CCc2ccccc2C1)c1ccnc(NC2CCNCC2)c1 [Compound 200]
18,< 0.1,O=C(NC[C@H](O)CN1CCc2ccccc2C1)c1cccc(OC2CCOCC2)c1 [Compound 82]
19,< 0.1,O=C(NC[C@H](O)CN1CCc2ccccc2C1)c1ccc2cc(O)ccc2c1 [Compound 318]
20,< 0.1,CC(C)N1CCC(Nc2cccc(C(=O)NCC(O)CN3CCc4ccccc4C3)c2)CC1 (stereo not drawn) [Compound 103]
21,< 0.1,CN1CCCC(CNc2cc(C(=O)NC[C@H](O)CN3CCc4ccccc4C3)ccn2)C1 (stereo partly drawn) [Compound 264]
22,< 0.1,CN1CCC(Nc2cc(C(=O)NC[C@H](O)CN3CCc4ccccc4C3)ccn2)CC1 [Compound 223]
23,< 0.1,O=C(NCC(O)CN1CCc2ccccc2C1)c1ccc2ncccc2c1 (stereo not drawn) [Compound 68]
24,< 0.1,NCCN1CCN(Cc2cccc(C(=O)NCC(O)CN3CCc4ccccc4C3)c2)CC1 (stereo not drawn) [Compound 147]
25,< 0.1,CN(CC(N)=O)Cc1cccc(C(=O)NCC(O)CN2CCc3ccccc3C2)c1 (stereo not drawn) [Compound 195]
26,0.101 to 1,O=C(NCC(O)CN1CCc2ccccc2C1)c1cncc(NC2CCOCC2)n1 (stereo not drawn) [Compound 75]
27,< 0.1,O=C(NC[C@H](O)CN1CCc2ccccc2C1)c1n[nH]c2ccccc12 [Compound 242]

row,IC50 [µM],SMILES
1,< 0.1,C[C@@H]1COCCC1Nc1cccc(C(=O)NC[C@H](O)CN2CCc3ccccc3C2)c1 (stereo partly drawn) [Compound 212]
2,< 0.1,CS(=O)(=O)N1CC[C@@H](Nc2cccc(C(=O)NC[C@H](O)CN3CCc4ccccc4C3)c2)C1 [Compound 267]
3,< 0.1,O=C(NCC(O)CN1CCc2ccccc2C1)c1cccc(NC2CCNCC2)c1 (stereo not drawn) [Compound 94]
4,0.101 to 1,O=C(NC[C@H](O)CN1CCc2ccccc2C1)c1c(O)ccc2ccccc12 [Compound 327]
5,< 0.1,"O=C(NCC(O)CN1CCc2ccccc2C1)c1cccc(NC2CCOCC2)c1 (stereo not drawn) [Compound 16, N-(3-(3,4-dihydroisoquinolin-2(1H)-yl)-2-hydroxypropyl)-3-((tetrahydro-2H-pyran-4-yl)amino)benzamide]"
6,< 0.1,O=C(NC[C@H](O)CN1CCc2ccccc2C1)c1ccnc(NCc2ccccn2)c1 [Compound 191]
7,< 0.1,CNCCN(C)c1cc(C(=O)NC[C@H](O)CN2CCc3ccccc3C2)ccn1 [Compound 233]
8,< 0.1,CS(=O)(=O)N1CCC(Oc2cc(C(=O)NC[C@H](O)CN3CCc4ccccc4C3)ncn2)CC1 [Compound 286]
9,< 0.1,CS(=O)(=O)N1CCC(Oc2cccc(C(=O)NCC(O)CN3CCc4ccccc4C3)c2)C1 (stereo not drawn) [Compound 162]
10,< 0.1,CN(C)CCN(C)c1cc(C(=O)NC[C@H](O)CN2CCc3ccccc3C2)ccn1 [Compound 186]
11,0.101 to 1,COCCCNc1cccc(C(=O)NCC(O)CN2CCc3ccccc3C2)c1 (stereo not drawn) [Compound 69]
12,< 0.1,O=C(NC[C@H](O)CN1CCc2ccccc2C1)c1ccnc(NCCNCC(F)(F)F)c1 [Compound 316]
13,< 0.1,C[C@@H]1CC(Nc2cccc(C(=O)NC[C@H](O)CN3CCc4ccccc4C3)c2)CCO1 (stereo partly drawn) [Compound 168]
14,< 0.1,O=C(NCC(O)CN1CCc2ccccc2C1)c1cccc(C2CCOC2)c1 (stereo not drawn) [Compound 154]
15,< 0.1,O=C(NC[C@H](O)CN1CCc2ccccc2C1)c1cncc(OC2CCOCC2)c1 [Compound 183]
16,0.101 to 1,O=C(NC[C@H](O)CN1CCc2ccccc2C1)c1cccc2ccccc12 [Compound 295]
17,< 0.1,"CN1CCC(c2cccc(C(=O)NCC(O)CN3CCc4ccccc4C3)c2)C1 (stereo not drawn) [Compound 38, N-(3-(3,4-dihydroisoquinolin-2(1H)-yl)-2-hydroxypropyl)-3-(1-methylpyrrolidin-3-yl)benzamide]"
18,< 0.1,COc1cc(C(=O)NC[C@H](O)CN2CCc3ccccc3C2)cc(NC2CCC2)n1 [Compound 332]
19,< 0.1,"O=C(NCC(O)CN1CCc2ccccc2C1)c1ccc(OC2CCOCC2)cc1 (stereo not drawn) [Compound 58, N-(3-(3,4-dihydroisoquinolin-2(1H)-yl)-2-hydroxypropyl)-4-((tetrahydro-2H-pyran-4-yl)oxy)benzamide]"
20,< 0.1,CN1CC(Nc2cc(C(=O)NC[C@H](O)CN3CCc4ccccc4C3)ncn2)C1 [Compound 281]
21,< 0.1,Cc1cnc(NC2CCOCC2)cc1C(=O)NC[C@H](O)CN1CCc2ccccc2C1 [Compound 307]
22,< 0.1,O=C(NCC(O)CN1CCc2ccccc2C1)c1cccc(C2CCOCC2)c1 (stereo not drawn) [Compound 99]
23,< 0.1,"O=C(NCC(O)CN1CCc2ccccc2C1)c1cccc(-c2ccncc2)c1 (stereo not drawn) [Compound 9, N-(3-(3,4-dihydroisoquinolin-2(1H)-yl)-2-hydroxypropyl)-3-(pyridin-4-yl)benzamide]"
24,< 0.1,O=C(NC[C@H](O)CN1CCc2ccccc2C1)c1cc(OC2CCNCC2)ncn1 [Compound 258]
25,< 0.1,CN1CCC(Oc2cncc(C(=O)NC[C@H](O)CN3CCc4ccccc4C3)c2)CC1 [Compound 288]
26,< 0.1,"O=C(NCC(O)CN1CCc2ccccc2C1)c1ccc(-c2ccccn2)cc1 (stereo not drawn) [Compound 13, N-(3-(3,4-dihydroisoquinolin-2(1H)-yl)-2-hydroxypropyl)-4-(pyridin-2-yl)benzamide]"

row,SMILES,IC50 [µM]
1,"O=C(NC[C@@H](O)CN1CCc2ccccc2C1)Oc1ccccc1 [Compound 11, (R)-phenyl (3-(3,4-dihydroisoquinolin-2(1H)-yl)-2-hydroxypropyl)carbamate]",< 0.1
